From publication PMC7180948, “New Insights into 4-Anilinoquinazolines as Inhibitors of Cardiac Troponin I–Interacting Kinase (TNNi3K)” (Molecules, 2020)

Columns and labels:
Assay in all cases: biochemical
Design in all cases: KINOMEscan competition binding panel (Eurofins DiscoverX), single concentration, % inhibition
Conditions in all cases: read-out: 7 at 1 µM % inhibition
PDGFRA = PDGFRA (Homo sapiens, UniProt P16234)
In short: (§1)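 Compounds were submitted at 1 µM to a KINOMEscan assay covering more than 400 human kinases. The screen served to define the selectivity profile.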

ROS1 = ROS1 (Homo sapiens, UniProt P08922)
Sequence of ROS1 (P08922 whole entry): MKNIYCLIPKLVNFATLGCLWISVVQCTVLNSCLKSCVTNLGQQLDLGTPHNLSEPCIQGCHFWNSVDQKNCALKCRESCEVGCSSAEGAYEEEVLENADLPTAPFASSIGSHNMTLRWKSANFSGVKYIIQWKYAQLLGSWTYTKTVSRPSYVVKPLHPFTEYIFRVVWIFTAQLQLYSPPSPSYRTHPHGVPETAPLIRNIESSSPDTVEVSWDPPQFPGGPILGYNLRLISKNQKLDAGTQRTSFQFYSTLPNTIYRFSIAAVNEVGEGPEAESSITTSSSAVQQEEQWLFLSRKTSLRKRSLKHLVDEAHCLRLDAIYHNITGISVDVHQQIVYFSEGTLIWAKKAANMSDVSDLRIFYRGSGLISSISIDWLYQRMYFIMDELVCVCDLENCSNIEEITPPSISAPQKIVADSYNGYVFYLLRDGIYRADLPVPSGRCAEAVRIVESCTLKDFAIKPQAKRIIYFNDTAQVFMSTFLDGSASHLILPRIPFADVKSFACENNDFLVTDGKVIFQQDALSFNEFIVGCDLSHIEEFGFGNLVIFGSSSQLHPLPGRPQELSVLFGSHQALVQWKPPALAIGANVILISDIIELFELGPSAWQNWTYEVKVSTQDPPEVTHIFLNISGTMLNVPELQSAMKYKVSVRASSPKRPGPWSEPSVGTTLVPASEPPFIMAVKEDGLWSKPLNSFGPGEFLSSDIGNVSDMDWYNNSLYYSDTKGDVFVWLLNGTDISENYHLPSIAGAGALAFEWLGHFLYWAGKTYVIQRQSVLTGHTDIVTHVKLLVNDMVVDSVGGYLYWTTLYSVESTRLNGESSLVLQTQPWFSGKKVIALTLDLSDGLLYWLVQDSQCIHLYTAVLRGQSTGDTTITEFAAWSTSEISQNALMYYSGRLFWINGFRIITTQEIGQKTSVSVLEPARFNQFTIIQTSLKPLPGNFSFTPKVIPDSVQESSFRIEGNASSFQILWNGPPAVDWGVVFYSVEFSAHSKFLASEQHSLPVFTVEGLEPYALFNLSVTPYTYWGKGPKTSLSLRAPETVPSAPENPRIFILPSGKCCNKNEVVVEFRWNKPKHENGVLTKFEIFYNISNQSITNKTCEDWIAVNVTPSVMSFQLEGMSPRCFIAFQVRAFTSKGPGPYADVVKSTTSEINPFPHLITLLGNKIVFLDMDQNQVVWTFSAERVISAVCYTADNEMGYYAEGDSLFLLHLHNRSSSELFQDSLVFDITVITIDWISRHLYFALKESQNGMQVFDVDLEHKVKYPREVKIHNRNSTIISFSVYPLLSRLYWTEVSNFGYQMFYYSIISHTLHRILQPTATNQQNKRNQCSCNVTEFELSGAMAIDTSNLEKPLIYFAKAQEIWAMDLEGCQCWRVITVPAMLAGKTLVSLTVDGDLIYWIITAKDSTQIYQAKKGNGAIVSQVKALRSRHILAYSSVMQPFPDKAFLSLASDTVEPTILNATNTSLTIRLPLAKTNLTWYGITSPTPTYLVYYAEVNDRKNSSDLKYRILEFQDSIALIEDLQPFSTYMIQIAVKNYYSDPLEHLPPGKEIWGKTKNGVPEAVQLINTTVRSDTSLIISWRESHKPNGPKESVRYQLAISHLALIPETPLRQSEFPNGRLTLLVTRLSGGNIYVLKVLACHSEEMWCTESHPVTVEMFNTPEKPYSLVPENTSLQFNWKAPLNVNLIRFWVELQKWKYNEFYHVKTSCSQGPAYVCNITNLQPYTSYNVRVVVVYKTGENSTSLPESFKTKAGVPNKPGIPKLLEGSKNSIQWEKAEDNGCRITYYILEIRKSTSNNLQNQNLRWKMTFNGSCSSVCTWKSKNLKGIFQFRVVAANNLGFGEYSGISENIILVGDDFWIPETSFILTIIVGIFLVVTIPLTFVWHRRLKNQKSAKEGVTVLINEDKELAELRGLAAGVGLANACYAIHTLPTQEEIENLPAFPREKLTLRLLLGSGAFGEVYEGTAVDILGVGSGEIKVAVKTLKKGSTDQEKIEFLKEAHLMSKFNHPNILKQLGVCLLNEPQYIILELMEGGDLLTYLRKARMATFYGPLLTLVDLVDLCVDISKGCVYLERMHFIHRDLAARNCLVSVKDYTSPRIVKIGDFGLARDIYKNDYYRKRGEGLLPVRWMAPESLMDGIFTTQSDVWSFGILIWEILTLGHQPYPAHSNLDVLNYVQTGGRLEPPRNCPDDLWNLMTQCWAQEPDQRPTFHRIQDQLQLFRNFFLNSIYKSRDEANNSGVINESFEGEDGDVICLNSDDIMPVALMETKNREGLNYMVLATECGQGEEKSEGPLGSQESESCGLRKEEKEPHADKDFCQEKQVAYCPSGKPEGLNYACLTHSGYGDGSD
In short: as §1

PRP4 = target: T1, PRP4 (Homo sapiens, UniProt Q13523)
T1 construct: gene PRPF4B
In short: as §1

ULK2 = ULK2 (Homo sapiens, UniProt Q8IYT8)
In short: as §1

PCTK2 = target: T2, PCTK2 (Homo sapiens, UniProt Q00537)
T2 construct: gene CDK17
In short: as §1

FLT3-autoinhibited = FLT3-autoinhibited (Homo sapiens, UniProt P36888)
In short: as §1

SRC = SRC (Homo sapiens, UniProt P12931)
In short: as §1

HIPK4 = HIPK4 (Homo sapiens, UniProt Q8NE63)
In short: as §1

PIK4CB = target: T3, PIK4CB (Homo sapiens, UniProt Q9UBF8)
T3 construct: gene PI4KB
T3 sequence (Q9UBF8 whole entry): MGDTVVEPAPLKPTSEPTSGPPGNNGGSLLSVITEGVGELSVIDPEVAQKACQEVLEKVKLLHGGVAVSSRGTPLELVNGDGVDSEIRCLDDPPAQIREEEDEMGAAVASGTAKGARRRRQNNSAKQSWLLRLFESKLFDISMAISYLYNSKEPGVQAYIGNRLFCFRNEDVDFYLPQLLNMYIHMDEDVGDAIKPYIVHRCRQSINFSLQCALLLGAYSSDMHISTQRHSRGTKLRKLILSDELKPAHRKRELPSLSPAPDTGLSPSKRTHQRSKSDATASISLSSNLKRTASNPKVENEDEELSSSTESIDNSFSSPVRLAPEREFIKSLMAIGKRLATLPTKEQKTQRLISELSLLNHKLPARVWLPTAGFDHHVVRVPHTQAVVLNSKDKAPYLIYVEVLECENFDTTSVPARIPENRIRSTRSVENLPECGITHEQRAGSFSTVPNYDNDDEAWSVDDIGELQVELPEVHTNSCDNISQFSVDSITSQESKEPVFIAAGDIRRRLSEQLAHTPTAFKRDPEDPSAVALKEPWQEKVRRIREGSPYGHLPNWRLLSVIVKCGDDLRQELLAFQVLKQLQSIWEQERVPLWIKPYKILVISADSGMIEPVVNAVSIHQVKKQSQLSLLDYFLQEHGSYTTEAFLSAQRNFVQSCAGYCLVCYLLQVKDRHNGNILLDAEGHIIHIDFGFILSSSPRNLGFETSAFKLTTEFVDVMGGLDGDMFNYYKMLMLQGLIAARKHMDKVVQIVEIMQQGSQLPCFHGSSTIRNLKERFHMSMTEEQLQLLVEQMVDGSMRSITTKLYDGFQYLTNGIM
In short: as §1

CAMK1D = CAMK1D (Homo sapiens, UniProt Q8IU85)
Sequence of CAMK1D (Q8IU85 whole entry): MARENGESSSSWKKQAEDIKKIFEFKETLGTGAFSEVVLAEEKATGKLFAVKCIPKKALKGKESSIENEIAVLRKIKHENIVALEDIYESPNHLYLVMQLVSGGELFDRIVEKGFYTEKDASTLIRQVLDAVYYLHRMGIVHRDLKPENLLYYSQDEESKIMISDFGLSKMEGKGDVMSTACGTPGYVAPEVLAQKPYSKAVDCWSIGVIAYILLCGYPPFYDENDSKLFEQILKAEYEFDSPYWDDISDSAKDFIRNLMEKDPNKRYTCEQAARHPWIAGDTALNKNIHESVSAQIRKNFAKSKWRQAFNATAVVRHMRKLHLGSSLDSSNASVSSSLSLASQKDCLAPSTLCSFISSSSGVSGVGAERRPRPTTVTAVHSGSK
In short: as §1

RIOK2 = RIOK2 (Homo sapiens, UniProt Q9BVS4)
In short: as §1

EPHA4 = EPHA4 (Homo sapiens, UniProt P54764)
In short: as §1

CIT = CIT (Homo sapiens, UniProt O14578)
In short: as §1

PRKG2 = PRKG2 (Homo sapiens, UniProt Q13237)
Sequence of PRKG2 (Q13237 whole entry): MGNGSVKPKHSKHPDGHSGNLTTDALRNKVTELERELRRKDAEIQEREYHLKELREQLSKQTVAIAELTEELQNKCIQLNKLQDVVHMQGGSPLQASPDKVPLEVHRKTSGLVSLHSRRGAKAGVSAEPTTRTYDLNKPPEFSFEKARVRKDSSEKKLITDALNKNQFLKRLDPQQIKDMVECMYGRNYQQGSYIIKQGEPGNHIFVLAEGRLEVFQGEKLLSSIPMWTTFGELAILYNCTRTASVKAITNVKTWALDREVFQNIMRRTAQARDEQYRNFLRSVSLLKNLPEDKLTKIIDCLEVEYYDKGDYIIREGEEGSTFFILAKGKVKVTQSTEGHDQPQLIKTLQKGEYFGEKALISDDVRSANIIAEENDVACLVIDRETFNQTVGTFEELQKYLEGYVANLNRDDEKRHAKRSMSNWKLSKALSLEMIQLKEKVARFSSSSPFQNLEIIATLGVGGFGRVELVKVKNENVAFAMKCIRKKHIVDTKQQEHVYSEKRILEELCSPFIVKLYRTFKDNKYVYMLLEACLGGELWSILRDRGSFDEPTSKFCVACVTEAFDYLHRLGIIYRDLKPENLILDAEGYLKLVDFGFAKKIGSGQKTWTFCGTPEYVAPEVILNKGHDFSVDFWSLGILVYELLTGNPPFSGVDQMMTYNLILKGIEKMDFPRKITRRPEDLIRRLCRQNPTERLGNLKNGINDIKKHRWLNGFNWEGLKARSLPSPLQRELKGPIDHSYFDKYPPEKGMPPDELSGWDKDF
In short: as §1

CSNK1G2 = CSNK1G2 (Homo sapiens, UniProt P78368)
In short: as §1

EGFR(L858R) = EGFR(L858R) (Homo sapiens, UniProt P00533, L858R)
In short: as §1

HASPIN = HASPIN (Homo sapiens, UniProt Q8TF76)
In short: as §1

IRAK1 = IRAK1 (Homo sapiens, UniProt P51617)
In short: as §1

BMPR1A = BMPR1A (Homo sapiens, UniProt P36894)
In short: as §1

ALK(L1196M) = ALK(L1196M) (Homo sapiens, UniProt Q9UM73, L1196M)
In short: as §1

TYRO3 = TYRO3 (Homo sapiens, UniProt Q06418)
In short: as §1

TNNI3K = TNNI3K (Homo sapiens, UniProt Q59H18)
In short: as §1

CLK3 = CLK3 (Homo sapiens, UniProt P49761)
Sequence of CLK3 (P49761 whole entry): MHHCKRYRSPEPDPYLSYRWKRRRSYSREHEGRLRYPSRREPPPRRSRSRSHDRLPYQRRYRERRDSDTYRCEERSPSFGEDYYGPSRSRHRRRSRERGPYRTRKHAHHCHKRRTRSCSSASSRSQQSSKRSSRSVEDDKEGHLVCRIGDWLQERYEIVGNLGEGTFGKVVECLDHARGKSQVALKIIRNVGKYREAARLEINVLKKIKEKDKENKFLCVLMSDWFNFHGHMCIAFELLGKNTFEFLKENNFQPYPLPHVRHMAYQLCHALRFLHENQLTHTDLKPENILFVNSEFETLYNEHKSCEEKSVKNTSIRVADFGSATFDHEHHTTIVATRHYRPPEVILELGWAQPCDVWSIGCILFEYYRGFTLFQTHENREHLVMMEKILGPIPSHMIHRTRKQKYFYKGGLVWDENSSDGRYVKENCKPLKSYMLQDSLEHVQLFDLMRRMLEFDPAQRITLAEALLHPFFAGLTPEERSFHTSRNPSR
In short: as §1

[1] = target: T4, ABL1(H396P)-nonphosphorylated (Homo sapiens, UniProt P00519, H396P)
T4 construct: nonphosphorylated
In short: as §1

CNS(=O)(=O)c1ccc(N(C)C)c(Nc2ncnc3cc(OC)c(OC)cc23)c1 [compound 7, 3-((6,7-dimethoxyquinazolin-4-yl)amino)-4-(dimethylamino)-N-methylbenzenesulfonamide]
inhibition at 1 µM (PDGFRA): 69% | inhibition at 1 µM (ROS1): 0% | inhibition at 1 µM (PRP4): 24% | inhibition at 1 µM (ULK2): 19% | inhibition at 1 µM (PCTK2): 0% | inhibition at 1 µM (FLT3-autoinhibited): 12% | inhibition at 1 µM (SRC): 0% | inhibition at 1 µM (HIPK4): 13% | inhibition at 1 µM (PIK4CB): 14% | inhibition at 1 µM (CAMK1D): 0% | inhibition at 1 µM (RIOK2): 0% | inhibition at 1 µM (EPHA4): 0% | inhibition at 1 µM (CIT): 0% | inhibition at 1 µM (PRKG2): 14% | inhibition at 1 µM (CSNK1G2): 0% | inhibition at 1 µM (EGFR(L858R)): 8% | inhibition at 1 µM (HASPIN): 3% | inhibition at 1 µM (IRAK1): 68% | inhibition at 1 µM (BMPR1A): 0% | inhibition at 1 µM (ALK(L1196M)): 5% | inhibition at 1 µM (TYRO3): 0% | inhibition at 1 µM (TNNI3K): 62% | inhibition at 1 µM (CLK3): 18% | inhibition at 1 µM [1]: 73%
